Results taken from patent US20100255580A1, “Differentiation of Human Embryonic Stem Cells” (LIFESCCAN, INC., priority 2007, published 2010).

Tested on: human embryonic stem cell line H1
Assay: Real-time PCR of definitive endoderm markers, H1 on human serum or […] (Examples 30, 31, 35)
Format: cell-based
Conditions: for expression of definitive endoderm markers: H1 passage 55 on human serum coated plates, with activin A, vs activin A only
Procedure: Cultures of the human embryonic stem cell line H1 at passage 55 were grown and differentiated on human serum (Sigma, #H1388, MO) coated plates. 0.5 ml of human serum was added to each well of 6 well tissue culture treated dish, incubated for 1 hr at room temperature, and aspirated before adding human embryonic stem cells. After cells reached 80% confluency, they were treated as follows: 2 days 0.5% FBS containing 10 ng/ml mouse recombinant Wnt3a (R&D) or 100 nM GSK-3B inhibitor IX (Catalog #361550, Calbiochem, CA) and 100 ng/mlActivin A (R&D). This was followed by 3 days 2% FBS plus 100 ng/mlActivin A. Cultures were then analyzed by real-time PCR (FIG. 46, panels a & b). […] These findings parallel our findings for human embryonic stem cells cultured on […]™ or human fibronectin coated plates.
The effectiveness of a number of commercially available GSK-3B inhibitors was evaluated in formation of DE from human embryonic stem cells. The following GSK-3B inhibitors were evaluated at 100 nM: GSK-3B inhibitor VIII (Catalog #361549, Calbiochem, CA), GSK-3B inhibitor IX (Catalog #361550, Calbiochem, CA), GSK-3B inhibitor XI (Catalog #361553, Calbiochem, CA), GSK-3B inhibitor XII (Catalog #361554, Calbiochem, CA). […] Control cultures were treated with low serum plus high dose of AA. FIG. 47, panels a and b depicts the gene expression of definitive endoderm markers at day 5. GSK-3B inhibitor IX and XI were both effective in inducing DE formation as compared to GSK-3B inhibitor VIII and XII.
The following combinations of WNT1+AA were tested:
a) 20 ng/ml of WNT1+100 ng/ml AA in 0.5% FBS+DM-F12 for days 1-2 followed by 2% FBS+DM-F12+100 ng/ml AA for day three, b) 20 ng/ml of WNT1+100 ng/ml AA in 0.5% FBS+DM-F12 for days 1-2 followed by 2% FBS+DM-F12+100 ng/ml AA for days 3-5, c) 10 ng/ml of WNT1+100 ng/ml AA in 0.5% FBS+DM-F12 for days 1-2 followed by 2% FBS+DM-F12+100 ng/ml AA for day three, d) 10 ng/ml of WNT1+100 ng/ml AA in 0.5% FBS+DM-F12 for days 1-2 followed by 2% FBS+DM-F12+100 ng/ml AA for days 3-5, e) 20 ng/ml of WNT1+100 ng/ml AA in 0.5% FBS+DM-F12 for days 1-2 followed by 2% FBS+DM-F12+100 ng/ml AA+20 ng/ml of WNT1 for day three, f) 20 ng/ml of WNT1+100 ng/ml AA in 0.5% FBS+DM-F12 for days 1-2 followed by 2% FBS+DM-F12+100 ng/ml AA+20 ng/ml of WNT1 for days 3-5.

Compound	inducing DE formation (H1P54 on MATRIGEL, 100 nM for first two days, compared to GSK-3B inhibitor VIII and XII)	expression of definitive endoderm markers
O=C1Nc2cc(Br)ccc2/C1=C1/Nc2ccccc2/C1=N\O [GSK-3B inhibitor IX, reference compound]	effective	Robust expression
Wnt-3a	–	Robust expression
